Experimental data: PMC11929074, “An in vitro platform for the enzymatic characterization of the rhomboid protease RHBDL4” (The Journal of Biological Chemistry, 2025)
*1 amine or outer side, *2 acyl side, *3 side chain or, on linkers, in order; H or OH if unused. Where a SMILES comes first, the peptide text is derived from it. [ ]: non-standard residue; d: D form. The star is where a group is joined. Pheol(OBn) = c1ccc(COC[C@H](Cc2ccccc2)N*)cc1; NH(4-phenylbutyl) = c1ccc(CCCCN*)cc1; X1 = C[C@H](N[*:1])C(=O)C(=O)[*:2]

Assays:
[1] = system: RHBDL4-GFP in ER-enriched microsomes of HEK293T cells; experiment: TAMRA-FP competition label assay in ER-enriched microsomes; type: binding, human; conditions: 100 μM compound, 1 h preincubation at 37 °C, then 500 nM TAMRA-FP 2 h at 37 °C; n = 3
Procedure: Figure 6 RHBDL4 inhibition studies in ER-enriched microsomes ER-enriched microsomes were preincubated with 100 μM of compounds or DMSO vehicle control followed by the addition of 500 nM of TAMRA-FP serine hydrolase probe. RHBDL4-GFP was immunoprecipitated with an α-GFP antibody and loaded on SDS-PAGE. TAMRA-FP labeling was analyzed via Cy3 filter followed by Western blotting using α-GFP antibody, n = 3.
ER-enriched microsomes were obtained by hypotonic swelling and centrifugation from Hek293T cells 24 h after transfection. To this end, cells from a subconfluent 15-cm plate were resuspended in isolation buffer (10 mM Hepes-KOH pH 7.4, 1.5 mM MgCl2, 10 mM KCl, EDTA-free complete protease inhibitor cocktail from Roche). After 10 min incubation at 4 °C, cells were lysed by passing six times through a 27-gauge needle. Cellular debris and nuclei were discarded after centrifugation at 1000g for 5 min at 4 °C. The supernatant was spun at 100,000g for 30 min at 4 °C. The membrane pellet was resuspended in 40 μl RM buffer (50 mM Hepes-KOH pH 7.4, 250 mM sucrose, 50 mM KOAc, 2 mM Mg(OAc)2). […] TAMRA-FP-labeling was analyzed in the wet gel with a green light source (535 nm) and a Cy3 filter by detecting fluorescence emission using ImageQuant 800 Fluor CCD imager (Cytiva) followed by Western blotting using an α-GFP antibody (Roche).

[2] = system: WT RHBDL4 (recombinant, purified); experiment: TAMRA-FP competition labelling on recombinant RHBDL4; type: binding, human; conditions: in-gel Cy3 fluorescence, compared with inactive RHBDL4-S144A control
Description: (§1) B, schematic representation of the peptidyl-α-ketoamide scaffold with peptide sequence P5-P1 at the nonprime side and hydrophobic substituent (R) at the prime side. C, schematic representation of the peptidyl-α-ketoamide inhibitor, compound 1a/1b. D, representative inhibition curve derived from measuring rates of RHBDL4 proteolysis of the fluorescent substrate IQ6 with increasing concentrations of compound 1a. E, same as (D), except inhibition curve was derived from using increasing concentrations of compound 1b. […] Reactions were quenched with 1 keLaemmli buffer and loaded on 12% SDS-PAGE gel. Post-transfer membranes were visualized using a fluorescence Cy3 filter and by Western blotting using an α-His antibody. For (A, D, and E), all inhibitors were pre-incubated with RHBDL4 for 1 h and allowed to react with the IQ6 substrate for 2 h.
(§2) B, representative inhibition curve derived from measuring rates of RHBDL4 proteolysis of the fluorescent substrate IQ6 with increasing concentrations of compound 3. C, same as (B), except inhibition curve was derived from using increasing concentrations of compound 4. […] Reactions were quenched with 1 RLaemmli buffer and loaded on 12% SDS-PAGE gel. Post-transfer membranes were visualized using a fluorescence Cy3 filter and by Western blotting using an α-His antibody. E, saturation curve of RHBDL4 using fluorescent substrate, KSp207. For (B and C), all inhibitors were pre-incubated with RHBDL4 for 1 h and allowed to react with the IQ6 substrate for 2 h. […] I assigned them to the substrate KSp207, which is named on the x-axis and in the inset table.

recombinant human RHBDL4 = molecular target: T1, recombinant human RHBDL4 (Homo sapiens, UniProt Q8TEB9); experiment: Inhibition of RHBDL4 proteolysis of IQ6 (FRET-based in vitro assay); type: biochemical; conditions: IQ6 substrate; inhibitor pre-incubated with RHBDL4 for 1 h, then reacted with IQ6 for 2 h; triplicate, average ± S.E.M.
T1 construct: The entire RHBDL4 and RHBDL4-S144A cDNAs were subcloned into the pcDNA3.1 vector; 6xHis (C, cleaved yes); made in house; host or cells: Freestyle 293-F cells (transient transfection, pcDNA3.1-HisA)
T1 sequence (Q8TEB9 1-315): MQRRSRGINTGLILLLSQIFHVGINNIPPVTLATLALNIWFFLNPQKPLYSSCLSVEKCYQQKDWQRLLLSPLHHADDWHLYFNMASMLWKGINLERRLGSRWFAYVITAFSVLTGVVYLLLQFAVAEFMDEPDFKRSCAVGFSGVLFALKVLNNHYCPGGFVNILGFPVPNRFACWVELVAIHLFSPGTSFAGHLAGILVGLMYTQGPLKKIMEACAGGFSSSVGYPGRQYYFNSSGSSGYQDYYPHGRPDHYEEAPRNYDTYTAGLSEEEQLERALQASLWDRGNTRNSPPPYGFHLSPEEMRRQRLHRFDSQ
Description: as §1, §2
The enzymatic assay was performed as previously described (Arutyunova et al., 2014, ([26])). […] The FRET-based cleavage assay was conducted in a fluorescence multiwell plate reader (SynergyMx, BioTek). Upon excitation at 320 nm, the emission intensity at 400 nm was recorded for 2 h at minimal intervals under shaking conditions and plotted using the GraphPad PRISM software. The initial velocities were defined as the slopes of the curve of the generated product as a function of time. The plots of the generated product against the corresponding substrate concentration were fitted with the Michaelis–Menten equation. Catalytic parameters were extrapolated using GraphPad PRISM. […] The samples were desalted using C18 tips (Rainin), eluted in 80% acetonitrile, and dried down in a vacuum centrifuge prior to mass spectrometry analysis.

Row | Compound | TAMRA-FP labeling of RHBDL4-GFP [1] | competition with TAMRA-FP probe (fluorescent signal) [2] | IC50 (recombinant human RHBDL4)
1 | CSCC[C@H](NC(=O)[C@H](CCC(N)=O)NC(C)=O)C(=O)N[C@@H](CCC(=O)O)C(=O)N[C@@H](CO)C(=O)N[C@@H](C)C(=O)C(=O)N[C@H](COCc1ccccc1)Cc1ccccc1 [compound 4] (Ac-QMES[X1]-{Pheol(OBn)}) | reduced | reduction in overall fluorescent signal | –
2 | CSCC[C@H](NC(=O)[C@H](CCC(N)=O)NC(C)=O)C(=O)N[C@@H](CCC(=O)O)C(=O)N[C@@H](CO)C(=O)N[C@@H](C)C(=O)C(=O)NCCCCc1ccccc1 [compound 3] (Ac-QMES[X1]-{NH(4-phenylbutyl)}) | reduced | reduction in overall fluorescent signal | 54 ± 13 nM
